Source: the supplement of paper PMC11061612

How the values were obtained:
Assay in all cases: combination Emax (second highest fraction inhibited in the dose matrix, 72 h); higher = more inhibition; extreme values may be limits of the assay
[1] = test system: EKVX (Non-Small Cell Lung Carcinoma)
Summary of the method: (§1)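 Cell lines in DMEM/F12 or RPMI with 10% FBS were plated in 1536-well plates, held 24 hours at 37°C, 5% CO2, then given two-drug dose matrices for 72 hours (DMSO typically 0.2%). Viability was read by CellTiter-Glo 2.0 luminescence and scaled as inhibition from 0 (vehicle wells) to 1 (blank wells). Combination Emax is the second-highest inhibition in the matrix; Bliss excess is observed combination effect minus expected EA + EB − EA·EB, EA and EB being single-agent effects.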

[2] = test system: HLE (Hepatocellular Carcinoma)
Summary of the method: as §1

[3] = test system: H4 (Low Grade Glioma)
Summary of the method: as §1

[4] = test system: SKN-3 (Head and Neck Carcinoma)
Summary of the method: as §1

[5] = test system: ETK-1 (Biliary Tract Carcinoma)
Summary of the method: as §1

[6] = test system: NCI-H1688 (Small Cell Lung Carcinoma)
Summary of the method: as §1

[7] = test system: GDM-1 (Acute Myeloid Leukemia)
Summary of the method: as §1

[8] = test system: Saos-2 (Osteosarcoma)
Summary of the method: as §1

[9] = test system: D-283MED (Other Solid Carcinomas)
Summary of the method: as §1

[10] = test system: U-118-MG (Low Grade Glioma)
Summary of the method: as §1

[11] = test system: HCT-116 (Colorectal Carcinoma)
Summary of the method: as §1

[12] = test system: D-392MG (Glioblastoma)
Summary of the method: as §1

[13] = test system: SLVL (B-Cell Non-Hodgkin's Lymphoma)
Summary of the method: as §1

[14] = test system: MEG-01 (Chronic Myelogenous Leukemia)
Summary of the method: as §1

[15] = test system: SNG-M (Endometrial Carcinoma)
Summary of the method: as §1

[16] = test system: HOP-92 (Non-Small Cell Lung Carcinoma)
Summary of the method: as §1

[17] = test system: RCC10RGB (Kidney Carcinoma)
Summary of the method: as §1

[18] = test system: WSU-DLCL2 (B-Cell Non-Hodgkin's Lymphoma)
Summary of the method: as §1

[19] = test system: BICR78 (Oral Cavity Carcinoma)
Summary of the method: as §1

[20] = test system: CS1 (Chondrosarcoma)
Summary of the method: as §1

| SMILES | combination Emax [1] | combination Emax [2] | combination Emax [3] | combination Emax [4] | combination Emax [5] | combination Emax [6] | combination Emax [7] | combination Emax [8] | combination Emax [9] | combination Emax [10] | combination Emax [11] | combination Emax [12] | combination Emax [13] | combination Emax [14] | combination Emax [15] | combination Emax [16] | combination Emax [17] | combination Emax [18] | combination Emax [19] | combination Emax [20] |
| --- | --- | --- | --- | --- | --- | --- | --- | --- | --- | --- | --- | --- | --- | --- | --- | --- | --- | --- | --- | --- |
| COc1cccc(OCCCN)c1-c1cc(Nc2cnc(C#N)cn2)n[nH]1 [Prexasertib] + CN(C)CCCOc1ccc(-c2ccc3ncc4c(c3c2)n(C2CCOCC2)c(=O)n4C)cn1 [AZD0156] (first compound max 1 µM, 7x7, partner max 1 µM) | 0.265 | 0.803 | 0.917 | 0.616 | 0.598 | 0.568 | 0.913 | 0.644 | 0.99 | 0.723 | 0.536 | 0.567 | 0.951 | 0.921 | 0.99 | 0.704 | 0.484 | 1 | 0.593 | 0.685 |
| COc1cccc(OCCCN)c1-c1cc(Nc2cnc(C#N)cn2)n[nH]1 [Prexasertib] + C[C@@H]1COCCN1C2=NC(=NC(=C2)C3(CC3)[S@](=N)(=O)C)C4=C5C=CNC5=NC=C4 [AZD6738] (first compound max 1 µM, 7x7, partner max 10 µM) | 0.24 | 0.867 | 0.91 | 0.637 | 0.588 | 0.535 | 0.94 | 0.704 | 0.988 | 0.772 | 0.747 | 0.524 | 0.952 | 0.929 | 1 | 0.669 | 0.45 | 1 | 0.645 | 0.714 |
| COc1cccc(OCCCN)c1-c1cc(Nc2cnc(C#N)cn2)n[nH]1 [Prexasertib] + Cc1cc2ncnn2cc1Nc1ncc2c(n1)n(C1CCOCC1)c(=O)n2C [AZD7648] (first compound max 1 µM, 7x7, partner max 10 µM) | 0.276 | 0.842 | 0.874 | 0.606 | 0.595 | 0.557 | 0.924 | 0.662 | 0.995 | 0.686 | 0.565 | 0.519 | 0.962 | 0.926 | 0.954 | 0.663 | 0.442 | 1 | 0.572 | 0.727 |
| COc1cccc(OCCCN)c1-c1cc(Nc2cnc(C#N)cn2)n[nH]1 [Prexasertib] + O=C(c1cc(Cc2n[nH]c(=O)c3ccccc23)ccc1F)N1CCN(C(=O)C2CC2)CC1 [Olaparib] (first compound max 1 µM, 7x7, partner max 10 µM) | 0.194 | 0.842 | 0.845 | 0.616 | 0.578 | 0.528 | 0.91 | 0.806 | 0.982 | 0.751 | 0.744 | 0.491 | 0.974 | 0.893 | 0.929 | 0.665 | 0.479 | 1 | 0.679 | 0.706 |
| COc1cc2c(cc1OCCCCCOc1cc3c(cc1OC)C(=O)N1C=C(C)C[C@H]1C=N3)N=C[C@@H]1CC(C)=CN1C2=O [SG3199] + O=C(c1cc(Cc2n[nH]c(=O)c3ccccc23)ccc1F)N1CCN(C(=O)C2CC2)CC1 [Olaparib] (first compound max 0.001 µM, 7x7, partner max 10 µM) | 0.0945 | 0.143 | 0.505 | 0.0527 | 0.188 | 0.107 | 0.32 | 0.125 | 0.417 | 0.305 | 0.314 | 0.111 | 0.518 | 0.111 | 0.159 | 0.192 | 0.148 | 0.127 | 0.131 | 0.178 |
| CCc1c2c(nc3ccc(O)cc13)-c1cc3c(c(=O)n1C2)COC(=O)[C@]3(O)CC [SN-38] + CN(C)CCCOc1ccc(-c2ccc3ncc4c(c3c2)n(C2CCOCC2)c(=O)n4C)cn1 [AZD0156] (first compound max 0.3 µM, 7x7, partner max 1 µM) | 0.188 | 0.916 | 0.931 | 0.47 | 0.572 | 0.322 | 0.937 | 0.944 | 0.954 | 0.893 | 0.826 | 0.609 | 0.972 | 0.73 | 0.433 | 0.606 | 0.689 | 0.944 | 0.786 | 0.821 |
| CC(=O)Nc1cccc(-n2c(=O)n(C3CC3)c(=O)c3c(Nc4ccc(I)cc4F)n(C)c(=O)c(C)c32)c1 [Trametinib] + Cc1nc(-c2cn3c(n2)-c2ccc(-c4cnn(C(C)(C)C(N)=O)c4)cc2OCC3)n(C(C)C)n1 [Taselisib] (first compound max 1 µM, 7x7, partner max 10 µM) | 0.82 | 0.401 | 0.795 | 0.655 | 0.86 | 0.628 | 0.88 | 0.681 | 0.576 | 0.757 | 1 | 0.709 | 0.478 | 0.953 | 0.871 | 0.988 | 0.69 | 0.936 | 0.726 | 0.878 |
| CC1(C)CCC(CN2CCN(c3ccc(C(=O)NS(=O)(=O)c4ccc(NCC5CCOCC5)c([N+](=O)[O-])c4)c(Oc4cnc5[nH]ccc5c4)c3)CC2)=C(c2ccc(Cl)cc2)C1 [Venetoclax] + C1CN(CCC1(C(=O)N[C@@H](CCO)C2=CC=C(C=C2)Cl)N)C3=NC=NC4=C3C=CN4 [Capivasertib] (first compound max 1 µM, 7x7, partner max 3 µM) | 0.302 | 0.181 | 0.473 | 0.0823 | 0.331 | 0.294 | 0.866 | 0.412 | 0.582 | 0.4 | 0.309 | 0.239 | 0.786 | 0.731 | 0.416 | 0.402 | 0.197 | 1 | 0.323 | 0.324 |
| CC1(C)CCC(CN2CCN(c3ccc(C(=O)NS(=O)(=O)c4ccc(NCC5CCOCC5)c([N+](=O)[O-])c4)c(Oc4cnc5[nH]ccc5c4)c3)CC2)=C(c2ccc(Cl)cc2)C1 [Venetoclax] + C=CCn1c(=O)c2cnc(Nc3ccc(N4CCN(C)CC4)cc3)nc2n1-c1cccc(C(C)(C)O)n1 [AZD1775] (first compound max 1 µM, partner max 1 µM) | 0.172 | 0.749 | 0.85 | 0.402 | 0.497 | 0.666 | 1 | 0.818 | 0.979 | 0.357 | 0.579 | 0.5 | 0.978 | 0.913 | 0.729 | 0.48 | 0.572 | 0.995 | 0.553 | 0.682 |
| CC1(C)CCC(CN2CCN(c3ccc(C(=O)NS(=O)(=O)c4ccc(NCC5CCOCC5)c([N+](=O)[O-])c4)c(Oc4cnc5[nH]ccc5c4)c3)CC2)=C(c2ccc(Cl)cc2)C1 [Venetoclax] + CCN(CCO)CCCOc1ccc2c(Nc3cc(CC(=O)Nc4cccc(F)c4)[nH]n3)ncnc2c1 [AZD2811] (first compound max 1 µM, 7x7, partner max 1 µM) | 0.178 | 0.416 | 0.583 | 0.19 | 0.259 | 0.242 | 0.996 | 0.648 | 0.778 | 0.357 | 0.456 | 0.217 | 0.901 | 0.799 | 0.278 | 0.476 | 0.212 | 0.758 | 0.245 | 0.434 |
| CC1(C)CCC(CN2CCN(c3ccc(C(=O)NS(=O)(=O)c4ccc(NCC5CCOCC5)c([N+](=O)[O-])c4)c(Oc4cnc5[nH]ccc5c4)c3)CC2)=C(c2ccc(Cl)cc2)C1 [Venetoclax] + CN(C)CCCOc1ccc(-c2ccc3ncc4c(c3c2)n(C2CCOCC2)c(=O)n4C)cn1 [AZD0156] (first compound max 1 µM, 7x7, partner max 1 µM) | 0.22 | 0.171 | 0.232 | 0.134 | 0.202 | 0.195 | 0.679 | 0.42 | 0.706 | 0.217 | 0.196 | 0.205 | 0.848 | 0.782 | 0.127 | 0.292 | 0.174 | 0.33 | 0.297 | 0.56 |
| CC1(C)CCC(CN2CCN(c3ccc(C(=O)NS(=O)(=O)c4ccc(NCC5CCOCC5)c([N+](=O)[O-])c4)c(Oc4cnc5[nH]ccc5c4)c3)CC2)=C(c2ccc(Cl)cc2)C1 [Venetoclax] + COc1cc(Nc2ncc3c(n2)-c2ccc(Cl)cc2C(c2c(F)cccc2OC)=NC3)ccc1C(=O)O [Alisertib] (first compound max 1 µM, 7x7, partner max 10 µM) | 0.646 | 0.598 | 0.814 | 0.374 | 0.453 | 0.398 | 0.98 | 0.682 | 0.85 | 0.527 | 0.581 | 0.416 | 0.932 | 0.817 | 0.752 | 0.57 | 0.568 | 0.995 | 0.38 | 0.598 |
